Test results: ChEMBL document CHEMBL1641470, “New azoles with antifungal activity: Design, synthesis, and molecular docking” (2011)
≈ marks a conversion by molar mass, not a printed value.

How the values were obtained:
Type in all cases: functional
Candida albicans = experiment: Antifungal activity against Candida albicans ATCC Y0109 after 24 hrs by broth microdilution method
Candida parapsilosis = experiment: Antifungal activity against Candida parapsilosis by broth microdilution method; details: Lodderomyces parapsilosis
Trichophyton rubrum = experiment: Antifungal activity against Trichophyton rubrum by broth microdilution method
Cryptococcus neoformans = experiment: Antifungal activity against Cryptococcus neoformans ATCC BLS108 after 72 hrs by broth microdilution method
Aspergillus fumigatus = experiment: Antifungal activity against Aspergillus fumigatus by broth microdilution method
Candida tropicalis = experiment: Antifungal activity against Candida tropicalis by broth microdilution method
Fusarium = experiment: Antifungal activity against Fusarium by broth microdilution method
Nannizzia gypsea = experiment: Antifungal activity against Microsporum gypseum by broth microdilution method

Row | Compound | MIC80 (Candida albicans) [µg/mL] | MIC80 (Candida parapsilosis) [µg/mL] | MIC80 (Trichophyton rubrum) [µg/mL] | MIC80 (Cryptococcus neoformans) [µg/mL] | MIC80 (Aspergillus fumigatus) [µg/mL] | MIC80 (Candida tropicalis) [µg/mL] | MIC80 (Fusarium) [µg/mL] | MIC80 (Nannizzia gypsea) [µg/mL]
1 | O=C(/C=C/c1ccc(Cl)c(Cl)c1)Nc1ccc(N2CCN(CC(O)(Cn3cncn3)c3ccc(F)cc3F)CC2)c(F)c1 (stereo not given) | 1 (≈ 1.58 µM) | 0.25 (≈ 0.396 µM) | 0.0625 (≈ 0.099 µM) | 1 (≈ 1.58 µM) | 4 (≈ 6.33 µM) | 0.0625 (≈ 0.099 µM) | 0.25 (≈ 0.396 µM) | 0.25 (≈ 0.396 µM)
2 | O=C(/C=C/c1cccc(Cl)c1)Nc1ccc(N2CCN(CC(O)(Cn3cncn3)c3ccc(F)cc3F)CC2)cc1 (stereo not given) | 0.0625 (≈ 0.108 µM) | 1 (≈ 1.73 µM) | 1 (≈ 1.73 µM) | 1 (≈ 1.73 µM) | 64 (≈ 111 µM) | 0.25 (≈ 0.432 µM) | 64 (≈ 111 µM) | 0.0156 (≈ 0.0269 µM)
3 | O=C(/C=C/c1ccc(Br)cc1)Nc1ccc(N2CCN(CC(O)(Cn3cncn3)c3ccc(F)cc3F)CC2)cc1 (stereo not given) | 0.0625 (≈ 0.1 µM) | 0.25 (≈ 0.401 µM) | 0.0156 (≈ 0.025 µM) | 0.25 (≈ 0.401 µM) | 4 (≈ 6.42 µM) | 0.25 (≈ 0.401 µM) | 1 (≈ 1.6 µM) | 0.25 (≈ 0.401 µM)
4 | O=C(/C=C/c1ccc(Cl)cc1)Nc1ccc(N2CCN(CC(O)(Cn3cncn3)c3ccc(F)cc3F)CC2)c(F)c1 (stereo not given) | 0.25 (≈ 0.419 µM) | 0.0156 (≈ 0.0261 µM) | 0.25 (≈ 0.419 µM) | 0.25 (≈ 0.419 µM) | 1 (≈ 1.67 µM) | 0.0625 (≈ 0.105 µM) | 0.25 (≈ 0.419 µM) | 0.0625 (≈ 0.105 µM)
5 | COc1ccc(OC)c(/C=C/C(=O)Nc2ccc(N3CCN(CC(O)(Cn4cncn4)c4ccc(F)cc4F)CC3)cc2)c1 (stereo not given) | 0.0156 (≈ 0.0258 µM) | 0.25 (≈ 0.413 µM) | 0.25 (≈ 0.413 µM) | 0.25 (≈ 0.413 µM) | > 64 | 0.0625 (≈ 0.103 µM) | 4 (≈ 6.62 µM) | 1 (≈ 1.65 µM)
